The values below come from patent US20240209034A1 (priority 2021, published 2024).

A short description of one data set: normal mouse serum. To be noted: 37° C.

*: point of attachment. Biotin = O=C1N[C@H]2[C@H](CS[C@H]2CCCCC(=O)*)N1

Turning to “Biotin-CAVPNLRGDLQVLAQKVCRTK-NH2 (cysteine pairing not given here)”, the cleaved bond result in “normal mouse serum” (up to 6 h) was “C18-arginine19”.
The same measure, in the same setting: for “Biotin-CAVPNLRGDLQVLAQKVCRTK-NH2 (cysteine pairing not given here) [C1C18 DFBP]” the value was “C18-arginine19, 2 h”.
On to “Biotin-NCVPNLRGDLQVLAQKVCRDTKAD-NH2 (cysteine pairing not given here)”, for which the cleaved bond result in the data set “normal mouse serum” (up to 24 h) is reported as “Asn1-C2”.
For “Biotin-NCVPNLRGDLQVLAQKVCRTK-NH2 (cysteine pairing not given here)”, the cleaved bond result in the data set “normal mouse serum” (up to 6 h) is listed as “C18-arginine19, 2 h”.
As for “acetyl-NCVPhNLRGDLQVLADQKVCRDTKD-biotin [C2C18 Ph AD RDTKD DFBP]”, in the data set with BxPC-3 cells, the “cell surface half-life (internalization)” value turned out to be 11.93 min.
Turning to biotin-NCVPhNLRGDLQVLAQKVCRDTKAD-amide, the cleaved bond entry in the data set “normal mouse serum” (up to 24 h) is “Asn1-C2”.
